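Abbreviation: GI50, concentration required for 50% inhibition of growth. TGI: concentration producing complete growth inhibition.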
How the values were obtained:
Test in all cases: growth of human tumour cells (NCI), 384-well format; in the data active = GI50 below about 0.43 µM; inactive = the rest
[1] = tested on: 786-0 renal
[2] = tested on: A498 renal
[3] = tested on: A549 NSCLC
[4] = tested on: ACHN renal
[5] = tested on: BT-549 breast
[6] = tested on: CAKI-1 renal
[7] = tested on: CCRF-CEM leukemia
[8] = tested on: DU-145 prostate
[9] = tested on: EKVX NSCLC
[10] = tested on: HCT-116 colon
[11] = tested on: HCT-15 colon
[12] = tested on: HL-60(TB) leukemia
[13] = tested on: HOP-62 NSCLC
[14] = tested on: HOP-92 NSCLC
[15] = tested on: HS 578T breast
[16] = tested on: HT29 colon
[17] = tested on: IGROV1 ovarian
[18] = tested on: K-562 leukemia
[19] = tested on: KM12 colon
[20] = tested on: LOX IMVI melanoma
[21] = tested on: M14 melanoma
[22] = tested on: MALME-3M melanoma
[23] = tested on: MCF7 breast
[24] = tested on: MDA-MB-231 breast
[25] = tested on: MDA-MB-435 melanoma
[26] = tested on: MDA-MB-468 breast
[27] = tested on: MOLT-4 leukemia
[28] = tested on: NCI-H226 lung

O=P1(NCCCl)OCCCN1CCCl (stereo not given)
inactive: GI50 [1] > 100 µM | GI50 [2] > 100 µM | GI50 [3] > 100 µM | GI50 [4] > 100 µM | GI50 [5] > 100 µM | GI50 [6] > 100 µM | GI50 [7] > 100 µM | GI50 [8] > 100 µM | GI50 [9] > 100 µM | GI50 [10] > 100 µM | GI50 [11] > 100 µM | GI50 [12] > 100 µM | GI50 [13] > 100 µM | GI50 [14] > 100 µM | GI50 [15] > 100 µM | GI50 [16] > 100 µM | GI50 [17] > 100 µM | GI50 [18] > 100 µM | GI50 [19] > 100 µM | GI50 [20] > 100 µM | GI50 [21] > 100 µM | GI50 [22] > 100 µM | GI50 [23] > 100 µM | GI50 [24] > 100 µM | GI50 [25] > 100 µM | GI50 [26] > 100 µM | GI50 [27] > 100 µM | GI50 [28] > 100 µM
> 100 µM: TGI [1] | TGI [2] | TGI [3] | TGI [4] | TGI [5] | TGI [6] | TGI [7] | TGI [8] | TGI [9] | TGI [10] | TGI [11] | TGI [12] | TGI [13] | TGI [14] | TGI [15] | TGI [16] | TGI [17] | TGI [18] | TGI [19] | TGI [20] | TGI [21] | TGI [22] | TGI [23] | TGI [24] | TGI [25] | TGI [26] | TGI [27]
